Data as given in patent US11607417B2, “Uses of celastrol in preventing and/or treating cholestatic liver disease and liver fibrosis” (KUNMING INSTITUTE OF BOTANY, THE CHINESE ACADEMY OF SCIENCES, priority 2017, dated 2023).

Columns and labels:
[1] = tested on: ANIT-induced cholestatic liver injury under SIRT1 inhibition; assay: Effect of SIRT1 inhibition (EX527) on celastrol activity in ANIT model (Example 3); assay type: in vivo, C57BL/6 mice
Method: A total of 24 male C57BL/6 mice were divided into four groups: blank group (n=6); model group (n=6); treatment group (n=6); and EX527 group (n=6).
Celastrol was dissolved in a solvent to obtain a celastrol solution at a concentration of 2 mg/mL, wherein the solvent consisted of 1% DMSO, 2% Tween 80, and 97% water (v:v:v). For intragastrical administration, the dosage of celastrol was 10 mg/kg·d. ANIT was dissolved in corn oil to obtain a corn oil solution of ANIT at a concentration of 15 mg/mL, and the dosage of ANIT for intragastrical administration was 75 mg/kg. EX527 was dissolved in corn oil to obtain a corn oil solution of EX527 at a concentration of 2 mg/mL, and the dosage of EX527 for intraperitoneal injection was 10 mg/kg·d.
(§1) The EX527 group was simultaneously administrated with the celastrol solution and the EX527 corn oil solution for 5 consecutive days. The treatment group was administrated with the celastrol solution and an equal dosage of corn oil for 5 consecutive days. At the same time, the blank group and the model group were administrated with equal dosages of solvent (1% DMSO, 2% Tween 80 and 97% water (v:v:v)) and corn oil, and the solvent was administrated for 5 consecutive days.
On the 3rd day of administration, ANIT model was established. 4 Hours after administration, the mice in the model group, the treatment group and the EX527 group were respectively intraperitoneally injected with the ANIT corn oil solution at a dosage of 75 mg/kg for single administration to induce cholestatic liver injury, and the blank group was fed with an equal dosage of corn oil. After the model was established on the 3rd day of administration, the treatment group was continuously administrated with celastrol, the EX527 group was continuously administrated with celastrol and EX527, and the blank group and the model group were continuously administrated with the same dosage of solvent. 48 Hours after administration with ANIT, the mice were sacrificed by CO2 anesthesia, and mouse liver samples and plasma samples were taken. The eyeballs of the mice were taken for blood collection. The plasma samples were placed on ice for 1-2 hours, centrifuged at 4000 g for 5 minutes at 4° C., and the supernatants of the plasma samples were taken to determine plasma biochemical indicators, the levels of ALT, AST and ALP.
At the same time, plasma samples were prepared: 10 μL of plasma sample was taken, mixed well with 190 μL of 67% acetonitrile (containing 5 μM internal standard chlorpropamide), centrifuged at 18000 g for 20 minutes at 4° C., and the supernatant was taken for sample injection. The liquid chromatography conditions were as follows: the injection volume was 5 μL; the temperature of column was 45° C.; the flow rate of mobile phase was 0.3 mL/min; the gradient elution was that acetonitrile concentration changed from 2% to 98% during 16 minutes of operation, wherein the mobile phase (water/acetonitrile solution) contained 0.01% formic acid. The elution procedure was as follows: during 0-12th minute, the acetonitrile concentration changed from 2% to 98% at a constant rate; during 12-14th minute, the acetonitrile concentration was maintained at 98%; during 14-14.1th minute, the acetonitrile concentration changed from 98% to 2%; during 14.1-16th minute, the acetonitrile concentration was maintained at 2%. Mass spectrometry conditions were as follows: the temperature of dry gas was 350° C., the pressure of nebulizer was 35 psi, and the voltage of capillary was 3.5 kV.
Part of the collected mouse liver tissue was fixed overnight in formalin and tissue sections were stained with hematoxylin and eosin (H&E).

[2] = tested on: TAA-induced cholestatic liver injury under SIRT1 inhibition; assay: Effect of SIRT1 inhibition (EX527) on celastrol activity in TAA model (Example 4); assay type: in vivo, C57BL/6 mice; conditions: TAA model
Method: A total of 24 male C57BL/6 mice were divided into four groups: blank group (n=6);
model group (n=6); treatment group (n=6); EX527 group (n=6).
Celastrol was dissolved in a solvent to obtain a solution of celastrol at a concentration of 2 mg/mL, wherein the solvent consisted of 1% DMSO, 2% Tween, and 97% water (v:v:v). For intragastrical administration, the dosage of celastrol was 10 mg/kg·d. TAA was dissolved in 0.9% NaCl solution to prepare a NaCl solution of TAA at a concentration of 60 mg/mL, and the dosage of TAA for intraperitoneal administration was 300 mg/kg. EX527 was dissolved in corn oil to prepare a corn oil solution of EX527 at a concentration of 2 mg/mL, and the dosage of EX527 for intraperitoneal administration was 10 mg/kg. d.
as §1, with “simultaneously administered” for “simultaneously administrated”, “for 4” for “for 5”
On the 4th day, the establishment of TAA model was performed. 1 Hour after administration, the mice in the model group, the treatment group and the EX527 group were intraperitoneally injected with TAA at a dosage of 300 mg/kg to induce cholestatic liver injury. 24 Hours after administration with TAA, the mice were sacrificed by CO2 anesthesia, and plasma samples and liver samples were collected. The eyeballs of the mice were taken for blood collection. The plasma samples were placed on ice for 1-2 hours, centrifuged at 4000 g for 5 minutes at 4° C., and the supernatants of plasma samples were taken to determine the plasma biochemical indicators, the levels of ALT, AST, and ALP.
At the same time, plasma samples were prepared: 10 μL of plasma sample was mixed with 190 μL of 67% acetonitrile (containing 5 μM internal standard chlorpropamide), centrifuged at 18000 g for 20 minutes at 4° C., and the supernatant was taken for sample injection. The liquid chromatography conditions were as follows: the volume of injection was 5 μL; the temperature of column was 45° C.; the flow rate of mobile phase was 0.3 mL/min; the gradient elution was that acetonitrile concentration changed from 2% to 98% during 16 minutes of operation, wherein the mobile phase (water/acetonitrile solution) contained 0.01% formic acid. The elution procedure was as follows: during 0-12th minute, the acetonitrile concentration changed from 2% to 98% at a constant rate; during 12-14th minute, the acetonitrile concentration was maintained at 98%; during 14-14.1th minute, the acetonitrile concentration changed from 98% to 2%; during 14.1-16th minute, the acetonitrile concentration was maintained at 2%. Mass spectrometry conditions were as follows: the temperature of dry gas was 350° C., the pressure of nebulizer was 35 psi, and the voltage of capillary was 3.5 kV.
Part of the collected mouse liver tissue was fixed overnight in formalin, and tissue sections were stained with hematoxylin and eosin (H&E).

[3] = EX527 group: celastrol 10 mg/kg·d + EX527 10 mg/kg·d i.p., P<0.05, FIG. 3E
[4] = EX527 group: celastrol 10 mg/kg·d + EX527 10 mg/kg·d i.p., P<0.001, FIG. 4E

## NC(=O)C1CCCc2c1[nH]c1ccc(Cl)cc21 (centres unmarked) [EX527, reference compound]
[1]; CA, TβMCA/TαMCA and THDCA/TUDCA, EX527 group: celastrol + EX527 10 mg/kg·d i.p., P<0.05, FIG. 3F
  Levels of bile acids in plasma vs treatment group: significantly higher
[1]; EX527 group: celastrol 10 mg/kg·d + EX527 10 mg/kg·d i.p., FIG. 3D
  H&E staining of mouse liver tissue: a severe inflammatory infiltration and a periportal hemorrhage also occurred
[1]; [3]
  ALT level in plasma vs treatment group: significantly higher
  AST level in plasma vs treatment group: significantly higher
[2]; DCA, TβMCA/TαMCA, TCA and TDCA, EX527 group: celastrol + EX527 10 mg/kg·d i.p., P<0.05, FIG. 4F
  Levels of bile acids in plasma vs treatment group: significantly higher
[2]; EX527 group: celastrol 10 mg/kg·d + EX527 10 mg/kg·d i.p., FIG. 4D
  H&E staining of mouse liver tissue: a severe necrosis of liver cells also occurred
[2]; [4]
  ALT level in plasma vs treatment group: significantly higher
  AST level in plasma vs treatment group: significantly higher
